This test deals with T1, HEK cells stably transfected with tetracycline inducible hNR1 and hNR2A (Homo sapiens, UniProt Q05586+Q12879).
T1 construct: expressed in transfected cells; host or cells: HEK cells, stably transfected, tetracycline/doxycycline inducible
Description: Assay 1: Cell-Based Assay, cytosolic calcium response to positive allosteric modulators (with 30 μM glycine and 300 nM L-glutamate, EC30). The following applies: Table 2; for EC50: cytosolic calcium response, with 30 μM glycine and 300 nM L-glutamate (EC30), — = no plateau was reached; for Max %: responses scaled relative to 100 μM L-glutamate maximal response (100%) and 0 μM L-glutamate (0%). The method, then:
Assay 1: Cell-Based Assay
HEK cells stably transfected with tetracycline inducible hNR1 and hNR2A were seeded into clear bottom 384 well poly-D-lysine coated plates (2.5×10^4 cells per well) in Minimum Essential Media (MEM; without L-) including 7.5 μg mL^−1 doxycycline and 500 μM (+)-ketamine. The cells were incubated at 37° C. in 5% CO2 for 24 h. For measurement of changes in cytosolic calcium, the seeding media was removed and the cells incubated at 37° C. for 60 min with 1× Becton Dickinson Calcium Assay Kit reagent in Hanks Balanced Salt Solution (HBSS; w/o magnesium, including 1.8 mM calcium, 0.65 mg ml^−1 probenecid and 10 μM (+)-ketamine, pH 7.15) then allowed to equilibrate to rt for 30 min. Concentration-effect curves to Positive Allosteric Modulators (PAMs) were constructed by adding different concentrations (with 30 μM glycine and 300 nM L-glutamate (EC30)) to different wells in HBSS. Compounds were added after a 10 second baseline read and maximum level of relative fluorescence units (RFU) was measured over a 5 min period. Responses were scaled relative to 100 μM L-glutamate maximal response (100%) and 0 μM L-glutamate (0%). EC50 values are provided for compounds reaching maximal response plateaus, and the max % (EC50 (- -)) only if no plateau was reached.
A four-parameter Hill equation was fitted to individual concentration-effect curves:
[formula] in which Y, S0, Sinf, AC50, n and c were effect, lower-asymptote, upper-asymptote, mid-point location, slope parameter, and concentration respectively.

A word on the EC50: it is the concentration needed to bring the measured effect to its halfway point.

T1 sequence (Q12879 23-1464, other chains not shown): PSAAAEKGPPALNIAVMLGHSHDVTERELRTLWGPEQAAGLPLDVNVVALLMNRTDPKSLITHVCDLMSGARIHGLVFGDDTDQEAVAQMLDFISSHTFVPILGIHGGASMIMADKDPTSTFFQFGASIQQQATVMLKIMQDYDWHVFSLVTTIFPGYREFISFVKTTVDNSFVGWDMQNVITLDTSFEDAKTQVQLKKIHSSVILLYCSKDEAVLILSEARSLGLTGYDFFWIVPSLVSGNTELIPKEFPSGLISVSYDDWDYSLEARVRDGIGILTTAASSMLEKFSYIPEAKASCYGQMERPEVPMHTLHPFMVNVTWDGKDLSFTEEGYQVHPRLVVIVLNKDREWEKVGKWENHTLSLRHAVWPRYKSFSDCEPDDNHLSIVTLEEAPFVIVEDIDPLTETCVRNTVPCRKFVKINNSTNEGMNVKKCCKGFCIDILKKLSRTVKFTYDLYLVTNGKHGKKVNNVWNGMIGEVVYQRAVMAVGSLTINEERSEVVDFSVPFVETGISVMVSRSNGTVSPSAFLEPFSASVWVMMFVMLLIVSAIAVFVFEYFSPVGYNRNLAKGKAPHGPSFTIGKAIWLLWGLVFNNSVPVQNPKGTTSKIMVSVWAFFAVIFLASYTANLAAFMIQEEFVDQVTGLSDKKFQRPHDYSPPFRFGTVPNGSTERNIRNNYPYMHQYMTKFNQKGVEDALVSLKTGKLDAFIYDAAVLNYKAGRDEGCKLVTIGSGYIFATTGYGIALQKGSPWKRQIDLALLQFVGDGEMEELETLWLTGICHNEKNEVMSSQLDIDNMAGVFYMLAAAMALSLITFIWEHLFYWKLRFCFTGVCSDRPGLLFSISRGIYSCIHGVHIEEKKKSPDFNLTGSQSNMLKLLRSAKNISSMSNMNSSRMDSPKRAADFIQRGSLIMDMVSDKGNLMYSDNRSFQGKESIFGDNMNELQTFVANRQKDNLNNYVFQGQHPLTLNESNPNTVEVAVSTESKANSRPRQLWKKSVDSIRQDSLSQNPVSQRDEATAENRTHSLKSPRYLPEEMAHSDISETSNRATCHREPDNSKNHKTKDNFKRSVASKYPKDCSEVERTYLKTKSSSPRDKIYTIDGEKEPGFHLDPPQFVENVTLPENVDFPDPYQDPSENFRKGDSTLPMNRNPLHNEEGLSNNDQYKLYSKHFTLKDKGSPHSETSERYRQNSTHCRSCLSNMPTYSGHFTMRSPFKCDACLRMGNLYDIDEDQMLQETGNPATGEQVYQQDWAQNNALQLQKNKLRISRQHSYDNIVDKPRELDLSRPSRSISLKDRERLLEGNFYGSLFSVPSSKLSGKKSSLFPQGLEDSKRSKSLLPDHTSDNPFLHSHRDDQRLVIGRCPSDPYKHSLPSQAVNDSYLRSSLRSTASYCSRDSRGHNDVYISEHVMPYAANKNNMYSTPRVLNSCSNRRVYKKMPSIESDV

For `Cc1sc2nc(Cn3nc(C(F)(F)F)cc3CCO)cc(=O)n2c1[C@@H]1C[C@H]1CO` (relative stereo) [Example 15.7, 7-[[5-(2-hydroxyethyl)-3-(trifluoromethyl)-1H-pyrazol-1-yl]methyl]-3-[trans-2-(hydroxymethyl)cyclopropyl]-2-methyl-5H-[1,3]thiazolo[3,2-a]pyrimidin-5-one], the half-maximal effective concentration (EC50) was 0.826 µM and the Max % is listed as 158%.

In the case of `Cc1sc2nc(Cn3nc(CCO)cc3C(F)(F)F)cc(=O)n2c1[C@@H]1C[C@H]1CO` (relative stereo) [Example 15.8, 7-((3-(2-hydroxyethyl)-5-(trifluoromethyl)-1H-pyrazol-1-yl)methyl)-3-(trans-2-(hydroxymethyl)cyclopropyl)-2-methyl-5H-thiazolo[3,2-a]pyrimidin-5-one], the EC50 came out at 30.8 µM and the Max % is 122%.

As to `Cc1sc2nc(Cn3nc(C(F)(F)F)cc3C3CC3)cc(=O)n2c1[C@@H]1C[C@H]1CO` (relative stereo) [Example 15.11, 7-((5-cyclopropyl-3-(trifluoromethyl)-1H-pyrazol-1-yl)methyl)-3-(trans-2-(hydroxymethyl)cyclopropyl)-2-methyl-5H-thiazolo[3,2-a]pyrimidin-5-one], the EC50 came out at 0.151 µM and the Max % turned out to be 159%.

In the case of `Cc1sc2nc(Cn3nc(C4CC4)cc3C(F)(F)F)cc(=O)n2c1[C@@H]1C[C@H]1CO` (relative stereo) [Example 15.12, 7-((3-cyclopropyl-5-(trifluoromethyl)-1H-pyrazol-1-yl)methyl)-3-(trans-2-(hydroxymethyl)cyclopropyl)-2-methyl-5H-thiazolo[3,2-a]pyrimidin-5-one], the EC50 worked out at 2.5 µM and the Max % is on record as 143%.

On to `Cc1sc2nc(Cn3nc(C4CC4)cc3C3CC3)cc(=O)n2c1[C@@H]1C[C@H]1CO` (relative stereo) [Example 15.17, 7[(3,5-dicyclopropylpyrazol-1-yl)methyl]-3-[trans-2-(hydroxymethyl)cyclopropyl]-2-methyl-thiazolo[3,2-a]pyrimidin-5-one], for which the 50% effective concentration (EC50) worked out at 3.4 µM and the Max % was 137%.

Take `Cc1cc(C)n(Cc2nc3sc(C)c([C@@H]4C[C@H]4CO)n3c(=O)c2F)n1` (relative stereo) [Example 15.18, 7-((3,5-dimethyl-1H-pyrazol-1-yl)methyl)-6-fluoro-3-(trans-2-(hydroxymethyl)cyclopropyl)-2-methyl-5H-thiazolo[3,2-a]pyrimidin-5-one]: the EC50 came out at 10.5 µM and the Max % is reported as 143%.

For `Cc1sc2nc(Cn3nc(C(F)(F)F)cc3C#N)cc(=O)n2c1[C@@H]1C[C@H]1CO` (relative stereo) [Example 15.19, 1-((3-(trans-2-(hydroxymethyl)cyclopropyl)-2-methyl-5-oxo-5H-thiazolo[3,2-a]pyrimidin-7-yl)methyl)-3-(trifluoromethyl)-1H-pyrazole-5-carbonitrile], the EC50 worked out at 0.512 µM and the Max % turned out to be 126%.

As to `Cc1sc2nc(Cn3nc(C(F)(F)F)cc3C3CC3)c(F)c(=O)n2c1[C@@H]1C[C@H]1CO` (relative stereo) [Example 15.20, 7-((5-cyclopropyl-3-(trifluoromethyl)-1H-pyrazol-1-yl)methyl)-6-fluoro-3-(trans-2-(hydroxymethyl)cyclopropyl)-2-methyl-5H-thiazolo[3,2-a]pyrimidin-5-one], the EC50 was 0.314 µM and the Max % is recorded as 153%.

Turning to `Cc1sc2nc(Cn3nc(C#N)cc3C)cc(=O)n2c1[C@@H]1C[C@H]1CO` (relative stereo) [Example 15.21, 1-[[3-[trans-2-(hydroxymethyl)cyclopropyl]-2-methyl-5-oxo-thiazolo[3,2-a]pyrimidin-7-yl]methyl]-5-methyl-pyrazole-3-carbonitrile], the EC50 came to 1.6 µM and the Max % came out at 161%.

As to `Cc1sc2nc(Cn3nc(C(F)F)cc3C)cc(=O)n2c1[C@@H]1C[C@H]1CO` (relative stereo) [Example 15.22, 7[[3-(difluoromethyl)-5-methyl-pyrazol-1-yl]methyl]-3-[trans-2-(hydroxymethyl)cyclopropyl]-2-methyl-thiazolo[3,2-a]pyrimidin-5-one], the EC50 was found to be 0.704 µM and the Max % is reported as 149%.

Regarding `Cc1sc2nc(Cn3ncc4ccc(F)cc43)cc(=O)n2c1[C@@H]1C[C@H]1CO` (relative stereo) [Example 15.23, 7-[(6-fluoroindazol-1-yl)methyl]-3-[trans-2-(hydroxymethyl)cyclopropyl]-2-methyl-thiazolo[3,2-a]pyrimidin-5-one], the EC50 was found to be 1.9 µM and the Max % came to 143%.

`Cc1cc(C)n(Cc2cc(=O)n3c([C@@H]4C[C@H]4CO)c(C)sc3n2)n1` (relative stereo) [Example 15.25, 7-[(3,5-dimethylpyrazol-1-yl)methyl]-3-[trans-2-(hydroxymethyl)cyclopropyl]-2-methyl-thiazolo[3,2-a]pyrimidin-5-one]: the EC50 was 16.5 µM and the Max % was 137%.

As to `Cc1sc2nc(Cn3ncc4cc(F)ccc43)cc(=O)n2c1[C@@H]1C[C@H]1CO` (relative stereo) [Example 15.26, 7-[(5-fluoroindazol-1-yl)methyl]-3-[trans-2-(hydroxymethyl)cyclopropyl]-2-methyl-thiazolo[3,2-a]pyrimidin-5-one], the EC50 is 3.8 µM and the Max % was found to be 123%.

As for `Cc1sc2nc(C(C)n3nc(C(F)(F)F)cc3C3CC3)cc(=O)n2c1[C@@H]1C[C@H]1CO` (relative stereo) [Example 19.1, 7-(1-(5-cyclopropyl-3-(trifluoromethyl)-1H-pyrazol-1-yl)ethyl)-3-(trans-2-(hydroxymethyl)cyclopropyl)-2-methyl-5H-thiazolo[3,2-a]pyrimidin-5-one], the EC50 amounted to 12.2 µM and the Max % amounted to 116%.

Turning to `Cc1sc2nc(Cc3cccc(C#N)c3F)cc(=O)n2c1[C@@H]1C[C@H]1CO` (relative stereo) [Example 20.3, 2-fluoro-3-((3-(trans-2-(hydroxymethyl)cyclopropyl)-2-methyl-5-oxo-5H-thiazolo[3,2-a]pyrimidin-7-yl)methyl)benzonitrile], the EC50 came to 1.8 µM and the Max % is listed as 148%.

For `Cc1sc2nc(Cc3cncc4ccccc34)cc(=O)n2c1[C@@H]1C[C@H]1CO` (relative stereo) [Example 20.4, 3-(trans-2-(hydroxymethyl)cyclopropyl)-7-(isoquinolin-4-ylmethyl)-2-methyl-5H-thiazolo[3,2-a]pyrimidin-5-one], the EC50 was found to be 8.5 µM and the Max % amounted to 147%.

With `Cc1sc2nc(Cc3cccc(C(F)(F)F)c3)cc(=O)n2c1[C@@H]1C[C@H]1CO` (relative stereo) [Example 20.5, 3-(trans-2-(hydroxymethyl)cyclopropyl)-2-methyl-7-(3-(trifluoromethyl)benzyl)-5H-thiazolo[3,2-a]pyrimidin-5-one], the half-maximal effective concentration (EC50) is 24 µM and the Max % stood at 124%.

As to `Cc1ccc(C#N)cc1Cc1cc(=O)n2c([C@@H]3C[C@H]3CO)c(C)sc2n1` (relative stereo) [Example 20.6, 3-((3-(trans-2-(hydroxymethyl)cyclopropyl)-2-methyl-5-oxo-5H-thiazolo[3,2-a]pyrimidin-7-yl)methyl)-4-methylbenzonitrile], the EC50 turned out to be 7.2 µM and the Max % was found to be 137%.

Consider `Cc1sc2nc(Cc3cc(C#N)ccc3F)cc(=O)n2c1[C@@H]1C[C@H]1CO` (relative stereo) [Example 20.7, 4-fluoro-3-((3-(trans-2-(hydroxymethyl)cyclopropyl)-2-methyl-5-oxo-5H-thiazolo[3,2-a]pyrimidin-7-yl)methyl)benzonitrile], for which the EC50 was 10.8 µM and the Max % was 137%.

Consider `Cc1sc2nc(Cc3cc(F)cc(C#N)c3)cc(=O)n2c1[C@@H]1C[C@H]1CO` (relative stereo) [Example 20.8, 3-fluoro-5-((3-(trans-2-(hydroxymethyl)cyclopropyl)-2-methyl-5-oxo-5H-thiazolo[3,2-a]pyrimidin-7-yl)methyl)benzonitrile], for which the EC50 came out at 19 µM and the Max % turned out to be 134%.

For `Cc1sc2nc(Cc3ccc(F)c(C#N)c3)cc(=O)n2c1[C@@H]1C[C@H]1CO` (relative stereo) [Example 20.9, 2-fluoro-5-((3-(trans-2-(hydroxymethyl)cyclopropyl)-2-methyl-5-oxo-5H-thiazolo[3,2-a]pyrimidin-7-yl)methyl)benzonitrile], the EC50 is 13.9 µM and the Max % is 133%.

For `COc1ccc(C#N)cc1Cc1cc(=O)n2c([C@@H]3C[C@H]3CO)c(C)sc2n1` (relative stereo) [Example 20.10, 3-[[3-[trans-2-(hydroxymethyl)cyclopropyl]-2-methyl-5-oxo-thiazolo[3,2-a]pyrimidin-7-yl]methyl]-4-methoxy-benzonitrile], the EC50 was found to be 9.1 µM and the Max % is recorded as 127%.

Values taken from patent US9988400B2 (Genentech, Inc., priority 2013, dated 2018).
